Data set [1] relates to primary human peripheral blood mononuclear cells (PBMCs). Description: LPS stimulated human PBMC cytokine release. In kind it is cell-based. The conditions noted are these: LPS 1 ng/ml, 48 hours; C-2250 500, 1000, 1500 μM; five donors. The method, then:
The ability of C-2250 to suppress in vitro cytokine release from primary human peripheral blood mononuclear cells (PBMCs) was assessed. Lipopolysaccharide (LPS) inhibition by C-2250 was determined. PBMCs from five individual, normal healthy human volunteers were incubated with C-2250, followed by LPS stimulation for 48 hours. Detection of three different cytokines was performed using an antibody capture bead-based kit and flow cytometric analysis.
Cryopreserved PBMCs from five healthy human donors (IQ Biosciences, Catalog #I QB-PBMC103) were thawed and cultured in RPMI 1640 medium (Gibco RPMI-1640 Medium (ATCC, Catalog #30-2001) supplemented with 10% FCS, 2 mM L-glutamine, 100 IU/mL penicillin, 100 μg/mL streptomycin, 1 mM sodium pyruvate (all from ThermoFisher) with viability >85% as determined automated cell counter (Countess II FL Automated Cell Counter; ThermoFisher; Catalog #AMQAF1000) prior to experiments. For C-2250, a 73 mM stock was prepared in sterile Lactated Ringer's Solution less than two hours prior to the start of the assay by adding 100 mg C-2250 into 10 mL Lactated Ringer's Solution. Prior to use in the assay, the pH of the solution was adjusted to 7.3. 100 μl of PBMCs at 1.0×10^7 cells/mL were washed and re-suspended in tissue culture medium containing a fixed concentration (1 ng/ml) of LPS from E. coli, serotype 0111:B4. LPS stimulation was performed for 48 hours at 37° C., 5% CO2 prior to harvesting tissue culture supernatant for cytokine analysis. C-2250 was used at 500, 1000, and 1500 μM concentrations.
Each symbol represents the mean value of triplicate analysis of a single donor. Each bar per treatment group represents the mean value of all donors where the triplicate value of each donor is averaged.

Data set [2] deals with Raji, a human CD19 expressing target B cell line. Description: CD19 CAR-T co-culture assay with Raji cells: CAR-T mediated target cell lysis. The conditions noted are these: E:T ratios 5:1, 10:1, 20:1. In kind it is cell-based. The protocol:
(§1) Human CD19 specific CAR-T effector cells from a donor were co-cultured with Raji, a human CD19 expressing target B cell line at different effector to target cell ratios of 5:1, 10:1, and 20:1 in the presence of C-2250. Co-culture was performed for 6 hours or 24 hours at 37° C., 5% CO2 prior to harvesting cells for CAR-T mediated target cell lysis or tissue culture supernatant for cytokine analysis. C-2250 was used at 500, 1000, and 1500 μM concentrations and was allowed to pre-incubate with CAR-T cells prior to addition of tumor target cells.
FIGS. 2A-2C show the results of CD19 CAR-T co-culture assay with CD-19 tumor cells (Raji) at 6 hours, CAR-T mediated tumor target cell in the present of increasing concentrations of C-2250 are shown (E:T ratios of 5:1, 10:1, and 20:1 are shown in FIGS. 2A, 2B, and 2C, respectively). FIGS. 3A-3C show the results of CD19 CAR-T co-culture assay with CD-19 tumor cells (Raji) at 24 hours, CAR-T mediated tumor target cell in the present of increasing concentrations of C-2250 are shown (E:T ratios of 5:1, 10:1, and 20:1 are shown in FIGS. 3A, 3B, and 3C, respectively).

In data set [3] the test system is Human CD19 specific CAR-T effector cells. Description: CD19 CAR-T co-culture assay with Raji cells: cytokine release. In kind it is cell-based. The method, then: as §1
Data set [4] has as its system Ramos cells (a human CD19 expressing B cell line). Description: PBMC/Ramos co-culture with BLINCYTO: target cell cytotoxicity. The following applies: 24 hours. Format: cell-based. The protocol: (§2) Inhibition of cytokine release by C-2250 in the presence of a bispecific CD19 T cell engager was assessed. Human PBMCs from ten donors were co-cultured with Ramos cells (a human CD19 expressing B cell line) in the presence of blinatumomab (BLINCYTO®), a T cell bispecific therapeutic, and C-2250 was added.
(§3) Co-culture was performed for 24 hours at 37° C., 5% CO2, prior to harvesting cells or tissue culture supernatant for analysis. C-2250 was used at 500, 1000, and 1500 μM concentrations and was allowed to pre-incubate with T cells prior to addition of BLINCYTO®.

For data set [5], the system named is Human PBMCs. Description: PBMC/Ramos co-culture with BLINCYTO: cytokine release. In kind it is cell-based. The protocol:
as §2, §3

A short description of data set [6]: Solubility in water / isotonicity. In kind it is physicochemical.
Data set [7] deals with CAR T cell-induced severe or life-threatening CRS. The following applies: two cohorts; adults and pediatric patients 2 years and older; cited from earlier work.
Setting [8] is: E:T ratios 5:1, 10:1, 20:1, C-2250 500, 1000, 1500 μM.
Setting [9] is: C-2250 500, 1000, 1500 μM with BLINCYTO 100 ng/ml, 24 hours.

Consider `O=S1(=O)CCOCN1` [C-2250, Tetrahydro1,4,5-oxathiazin-4-dioxide], for which, in data set [1], the “inhibition of IL-1β cytokine release” value was “dose-dependent inhibition”, the “inhibition of IL-6 cytokine release” value is given as “dose-dependent inhibition” and the “inhibition of TNF-α cytokine release” value is “dose-dependent inhibition”. In addition, in data set [2] (6 hours), the “CD19 CAR-T mediated CD19+ tumor target cell cytotoxicity” value is recorded as “does not abrograte”. The “CD19 CAR-T mediated CD19+ tumor target cell cytotoxicity” value in data set [2] (24 hours) is “does not abrograte”. Also, the “cytokine release (including IL-1β, IL-6, TNF-α, and IFN-γ cytokines)” value in data set [3] (CAR-T/Raji co-culture, summary statement) is reported as “shuts down”. In addition, in data set [3] (setting [8]), the “CD19 CAR-T cell mediated IFN-γ cytokine release” value was “reduces”, the “CD19 CAR-T cell mediated IL-2 cytokine release” value is reported as “reduces” and the “CD19 CAR-T cell mediated TNF-α cytokine release” value is given as “reduces”. Also, in data set [4] (C-2250 500, 1000, 1500 μM with BLINCYTO 100 ng/ml), the “BLINCYTO mediated CD19+ tumor target cell cytotoxicity” value was “did not reduce”. Also, in data set [4] (no BLINCYTO, PBMC/Ramos co-culture), the “tumor target cytotoxicity in the absence of BLINCYTO” value is “increased”. In data set [5] (setting [9]), the “BLINCYTO T-cell mediated IFN-γ cytokine release” value is reported as “reduced”, the “BLINCYTO T-cell mediated IL-1β cytokine release” value is “reduced”, the “BLINCYTO T-cell mediated IL-2 cytokine release” value was “reduced” and the “BLINCYTO T-cell mediated IL-6 cytokine release” value is listed as “reduced”. Also, the “BLINCYTO T-cell mediated TNF-α cytokine release” value in data set [5] (setting [9]) is on record as “reduced”. Moreover, the “release of all of the tested cytokines” value in data set [5] (with BLINCYTO, summary statement) is reported as “reduced”. Besides, the “concentration of isotonic solution” value in data set [6] is reported as 3.2%. Also, in data set [6] (no PVP necessary), the solubility in water result is “very soluble”.
Turning to “tocilizumab: monoclonal antibody blocking the interleukin-6 (IL-6) receptor”, the response rates in data set [7] is reported as 53%-69%.

The values are drawn from patent US12514847B2, “Oxathiazin_dioxide for treating, preventing, inhibiting or reducing cytokine release” (Geistlich Pharma AG, priority 2019, dated 2026).
